According to US20100035853A1, “METHOD FOR PREVENTING OR TREATING CISPLATIN-INDUCED NEPHROTOXICITY” (HYOGO COLLEGE OF MEDICINE, priority 2008, published 2010):

Legend:
[1] = Survival of wild-type and IL-18KO mice after Cisplatin; format: in vivo, mouse; details: Cisplatin 20 mg/kg i.p.; for dead mice: day 2; for survival rate: day 3
Experimental: Open and closed symbols show wild-type and IL-18KO mice, respectively.
(§1) As a control, mice were treated with a similar volume of saline.

[2] = Serum IL-18 and other cytokines after Cisplatin treatment (ELISA); format: in vivo, mouse; details: wild-type BALB/c mice, Cisplatin 20 mg/kg i.p.
Experimental: Levels of serum IL-18 were measured using the specific ELISA kit.
IL-18 concentrations in serum were measured by ELISA purchased from Medical and Biological Laboratories (Tokyo, Japan) in accordance with the manufactures' instructions. Other cytokines such as TNF-α, IFN-γ, IL-1β, IL-10 and MIP-1α were measured respective ELISA kits purchased from R&D Systems Inc (USA).

[3] = Accumulation of Cisplatin in the kidney (platinum ion content of kidney homogenate); format: in vivo, mouse; details: wild-type vs IL-18KO mice, Cisplatin 20 mg/kg i.p.
Experimental: Accumulations of Cisplatin in the kidney were measured as platinum ion content in the kidney homogenate. Open and closed columns show wild-type and IL-18KO mice, respectively.

[4] = biological target: T1, aldosterone receptor (Mus musculus, UniProt Q8VII8); assay: Effect of Eplerenone on Cisplatin-induced increase in plasma aldosterone in wild-type mice; format: in vivo; set-up: Wild-type male BALB/c mice (WT mice) aged 9-10 weeks-old were purchased; from tissue; host or cells: whole animal: wild-type male BALB/c mice dosed orally, with read-outs in plasma; details: Eplerenone 20 mg/kg orally, observation for 3 days, significant at day 1 and later
T1 sequence (Q8VII8 1-978): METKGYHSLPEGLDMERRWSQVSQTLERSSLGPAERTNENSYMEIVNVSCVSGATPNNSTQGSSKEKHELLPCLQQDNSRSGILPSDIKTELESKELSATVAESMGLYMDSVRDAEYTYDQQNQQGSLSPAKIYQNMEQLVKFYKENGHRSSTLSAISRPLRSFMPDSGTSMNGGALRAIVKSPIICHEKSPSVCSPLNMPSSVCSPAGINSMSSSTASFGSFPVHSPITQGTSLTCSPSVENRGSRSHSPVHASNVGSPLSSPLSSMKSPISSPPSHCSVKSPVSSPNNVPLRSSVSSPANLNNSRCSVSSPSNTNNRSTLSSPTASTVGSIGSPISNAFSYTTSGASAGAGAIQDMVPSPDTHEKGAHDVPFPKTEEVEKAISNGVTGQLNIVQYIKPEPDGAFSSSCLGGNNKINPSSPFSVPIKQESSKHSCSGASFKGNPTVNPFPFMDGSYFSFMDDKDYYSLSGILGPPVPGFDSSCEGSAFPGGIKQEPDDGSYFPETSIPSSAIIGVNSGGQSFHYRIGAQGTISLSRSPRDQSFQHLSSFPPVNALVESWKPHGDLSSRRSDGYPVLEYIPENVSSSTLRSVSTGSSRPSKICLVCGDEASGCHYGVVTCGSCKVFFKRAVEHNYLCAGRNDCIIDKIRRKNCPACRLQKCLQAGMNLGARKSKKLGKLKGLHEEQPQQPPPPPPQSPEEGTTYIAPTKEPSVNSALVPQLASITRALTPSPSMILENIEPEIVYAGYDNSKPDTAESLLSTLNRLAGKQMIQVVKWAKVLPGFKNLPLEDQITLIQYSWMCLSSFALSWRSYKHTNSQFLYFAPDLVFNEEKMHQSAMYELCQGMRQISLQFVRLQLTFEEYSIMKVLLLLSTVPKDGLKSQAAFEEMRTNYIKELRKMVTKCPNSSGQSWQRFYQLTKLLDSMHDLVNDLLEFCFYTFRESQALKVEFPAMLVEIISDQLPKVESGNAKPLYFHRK
Experimental: (§2) Open and closed columns show vehicle- and Eplerenone-treated mice, respectively. […] NS; not significant.
(§3) Blood urea nitrogen (BUN) and creatinine were enzymatically measured by HITACHI 7180 auto-analyzer. Aldosterone level was measured by radioimmuno assay. All of these assays were performed by SRL, Inc (Tokyo, Japan).

[5] = biological target: T1, aldosterone receptor
Experimental: as §2, §3

[6] = Exogenous recombinant mouse IL-18 in Cisplatin-treated IL-18KO mice: plasma BUN and creatinine; format: in vivo; details: IL-18KO mice supplemented with rmIL-18 (2 μg/body), Cisplatin 20 mg/kg i.p.
Experimental: Plasma levels of BUN and creatinine were measured as shown in Materials and Methods. Open, closed and grey-colored columns show wild-type, IL-18KO and IL-18-supplemented IL-18KO mice, respectively. […] NS; not significant.
as §1, §3

[7] = Induction of plasma aldosterone by recombinant IL-18 in wild-type mice; format: in vivo
Experimental: Wild-type mice were treated with various doses of IL-18 (0.2, 0.6 and 2 mg/mouse), then blood samples were collected at 5 hours after IL-18 treatment. […] NS; not significant.
as §3

[8] = wild-type mice, Eplerenone 20 mg/kg orally 30 min pre, day 1, day 2, Cisplatin 20 mg/kg i.p.

**Q.** For `N.N.[Cl][Pt][Cl]` [Cisplatin], which dead mice ([1]; IL-18KO mice) is on record?
**A.** no mouse was dead

**Q.** What about the survival rate ([1]; IL-18KO mice) of the same molecule?
**A.** 92.9%

**Q.** And the dead mice ([1]; wild-type mice)?
**A.** six of fourteen

**Q.** What about the survival rate ([1]; wild-type mice) of the same molecule?
**A.** 28.6%

**Q.** What about the “levels of IL-18 in the circulation” value ([2]; around day 3) of the same molecule?
**A.** over 1000 pg/ml

**Q.** And the “other cytokines (TNF-α, IFN-γ, IL-1β, IL-10, MIP-1α) in serum” value ([2]; when IL-18 was at maximal levels (data not shown))?
**A.** undetectable

**Q.** And the “quantity of platinum ion in the kidney” value ([3]; day 1)?
**A.** almost equivalent

**Q.** What about the “rate of excretion of platinum ion from the kidney” value ([3]; day 2 and 3) of the same molecule?
**A.** much rapid in IL-18KO mice than in wild-type mice

**Q.** With `COC(=O)[C@@H]1CC2=CC(=O)CC[C@]2(C)[C@@]23O[C@@H]2C[C@@]2(C)[C@@H](CC[C@@]24CCC(=O)O4)[C@H]13` [Eplerenone] as the molecule, how does the “increase in plasma aldosterone level induced by Cisplatin” value [4] read?
**A.** completely inhibited

**Q.** And the “inhibition of increased creatinine level vs vehicle” value ([5]; day 1 and later after Cisplatin treatment)?
**A.** significant inhibition

**Q.** What about the “inhibition of increased BUN level vs vehicle” value ([5]; day 2 and 3 after Cisplatin treatment) of the same molecule?
**A.** Significant inhibition

**Q.** And the “renal toxicity of Cisplatin (summary statement)” value ([5]; wild-type mice)?
**A.** strongly suppressed

**Q.** And the “lethality of Cisplatin” value ([5]; wild-type mice treated with Eplerenone (data not shown))?
**A.** almost completely suppressed

**Q.** What about the “elevation of plasma BUN” value [5, 8] of the same molecule?
**A.** almost completely suppressed

**Q.** And the “elevation of plasma creatinine” value [5, 8]?
**A.** almost completely suppressed

B1: rmIL-18: Recombinant mouse IL-18 donated by GlaxoSmithKline Pharmaceuticals (protein, UniProt P70380 36-192, looked up)
Interleukin-18: NFGRLHCTTAVIRNINDQVLFVDKRQPVFEDMTDIDQSASEPQTRLIIYMYKDSEVRGLAVTLSVKDSKMSTLSCKNKIISFEEMDPPENIDDIQSDLIFFQKRVPGHNKMEFESSLYEGHFLACQKEDDAFKLILKKKDENGDKSVMFTLTNLHQS
**Q.** Which “plasma levels of creatinine induced by Cisplatin” value ([6]; day 1 to 3) does the source give for B1 here?
**A.** significantly increased

**Q.** What about the “plasma levels of BUN” value ([6]; day 3) of the same molecule?
**A.** increased to almost equivalent levels with wild-type mice

**Q.** And the “renal toxicity of exogenously given IL-18 alone” value ([7]; wild-type mice (data not shown))?
**A.** did not cause any renal toxicity

**Q.** And the “dose of IL-18 giving significant induction of plasma aldosterone” value ([7]; wild-type mice, 5 hours after IL-18 treatment)?
**A.** over 0.6 μg

**Q.** What about the “plasma levels of aldosterone” value ([7]; wild-type mice, various doses of IL-18, 5 hours after treatment) of the same molecule?
**A.** augmented the plasma levels of aldosterone in a dose-dependent manner
